Data set [1] relates to isolated heart. Kind of data set: Experiment 2-2 Activity onto the isolated heart (with duration). The following applies: for Coronary perfusion Duration: time until perfusion volume returned to initial level; for activation at 3 µg/heart / inhibition at 3 µg/heart / activation at 1 µg/heart / inhibition at 1 µg/heart: Oryctolagus cuniculus; for activation at 3 µg/heart / activation at 1 µg/heart: read-out: Coronary perfusion Increase. On the set-up: species or system Japanese white rabbit. As for the experimental part: Japanese white rabbit (weighing 2.2-2.5 kg) was anesthetized by introvenous injection of nembutal (20 mg/kg) and then sacrificed by bleeding from common carotid artery. […] There were measured the perfusion volume with a drop-counting meter (ET-600G type, manufactured by Nippon Koden K.K.) and the heart pulse and the contractility via a force-displacement transducer (FD pick up, SB-IT type, manufactured by Nippon Koden K.K.) (for measuring heart pulse, an instant pulse meter (AT-601G type, minufactured by Nippon Koden K.K.) being further used).
The test compounds were dissolved in ethanol, and the solution was diluted in 100-fold with purified water, and the diluted solution was administered in an amount of 0.1 ml/heart (i.e. 3 μg/heart).
The activity was measured in the same manner as described in Experiment 2-1 except that in some test compounds, the dose was in 1 μg/heart. Besides, the duration of the activity was evaluated by counting the time until the coronary perfusion volume became to the initial level before the administration of the test compound.

Data set [2] deals with Spontaneously hypertensive male rats. Kind of data set: Experiment 1-1 Hypotensive activity (oral, conscious spontaneously hypertensive rats). It is filed as in vivo, rat. The following applies: for Maximum hypotension: mean blood pressure.
For data set [3], the system named is isolated heart. Kind of data set: Experiment 2-1 Activity on isolated heart. As to conditions: for activation at 3 µg/heart / inhibition at 3 µg/heart, 3 µg/heart / inhibition at 3 µg/heart: Oryctolagus cuniculus, 3 μg/heart; for activation at 3 µg/heart: read-out: Increase of coronary perfusion; for inhibition at 3 µg/heart, 3 µg/heart: read-out: Inhibitory rate of systole; for inhibition at 3 µg/heart: read-out: Reducing rate of heart pulse. On the set-up: species or system Japanese white rabbit. On the procedure: Japanese white rabbit (weighing 2.2-2.5 kg) was anesthetized by introvenous injection of nembutal (20 mg/kg) and then sacrificed by bleeding from common carotid artery. […] After stabilizing the heart preparation for 90 minutes, the test compound was administered. There were measured the perfusion volume with a drop-counting meter (ET-600G type, manufactured by Nippon Koden K.K.) and the heart pulse and the contractility via a force-displacement transducer (FD pick up, SB-IT type, manufactured by Nippon Koden K.K.) (for measuring heart pulse, an instant pulse meter (AT-601G type, minufactured by Nippon Koden K.K.) being further used).

For data set [4], the system named is isolated aorta. Kind of data set: Experiment 3 Relaxing activity on the isolated aorta (30 mM KCl contracted). On the set-up: species or system Japanese white rabbit. The following applies: for EC50: Oryctolagus cuniculus, read-out: EC50 (concentration for 50% relaxation); for relaxing / vasodilating activity on isolated aorta (in words): Table 8, comparison with nifedipine and nicardipine hydrochloride, etc. where stated.
Procedure: Japanese white rabbit (weighing 2.3-2.7 kg) was sacrificed by bleeding from common carotid artery. Immediately, the aorta was isolated and cut into a sprial strip. The strip preparation was vertically suspended under a resting tension of 2.0 g in a tissue bath containing 20 ml of modified Ringer solution while bubbling with a mixture of 95% O2 +5% CO2 by connecting one end of the strip to a lever of the above-mentioned FD pick up. The aortic strip was contracted with 30 mM KCl. When the contraction became constant, the test compound was accumulatively administered, and the relaxing effect was measured. After the final treatment, 10^-4T M papaverine was administered and the maximum relaxation obtained thereby was taken as 100%. In comparison with the maximum relaxation obtained by papaverine, the rate of relaxation by the test compounds was evaluated, and the concentration of the test compounds for obtaining 50% relaxation (EC50) was calculated.
The test compound was dissolved in ethanol, and the solution was diluted in 100 to 1×10^4 folds with a nutrient solution, and the diluted solution was administered.

Data set [5] concerns Spontaneously hypertensive male rats. Kind of data set: Experiment 1-2 Hypotensive activity (oral, 8 hours). It is filed as in vivo, rat. The following applies: for hypotensive activity (in words): Table 5, comparison with nifedipine and nicardipine hydrochloride where stated. As for the experimental part:
Spontaneously hypertensive male rats (13-15 week age, one group: 3 rats) were used. […] The rats were fixed in a Howlman cage without fasting, and the femoral arterial pressure was measured by a direct method without anesthesia with a cannula which was previously inserted into the femoral artery of the animal, via a pressure transducer (MPU-0.5, manufactured by Nippon Koden K.K.). The test compounds were orally administered in the form of a suspension in 0.5% methyl cellulose solution in a dose of 10 mg/kg (in some compounds, 3 mg/kg). In the control group, only 0.5% methyl cellulose solution was administered likewise. The blood pressure was measured for 5 hours after the administration of test compounds.
The hypotensive activity was measured in the same manner as described in Experiment 1-1 except that the rats were used in 3-5 rats per each group, and the test compounds were administered in a dose of 1 mg/kg (some compounds, 3 mg/kg), and the blood pressure was measured for 8 hours after the administration of test compounds.

Data set [6] is described as follows: Experiment 4-1 Acute toxicity. The following applies: rat, in vivo; oral, male rats, 5 week age, 7 days. The text has this: Wistar male rats (5 week age, weighing 105-135 g) were used. The compounds of Example Nos. 2, 3 and 7 were each orally administered to the animals in the form of a suspension in 0.5% methyl cellulose solution.
Data set [7] in a line: Experiment 4-2 Acute toxicity, rats. As to conditions: rat, in vivo, po, 4 week age, 7 days. From the text: Wistar male and female rats (4 week age) and ddy male and female mice (4 week age) were used. The compounds of Example Nos. 82 and 83 were each orally administered to […].
Setting [8] is: 3 μg/heart, read-out: Inhibitory rate of systole.
Where [9] appears, read: 3 μg/heart, read-out: Reducing rate of heart pulse.
[10] abbreviates: 30 mM KCl contraction, maximum relaxation by papaverine = 100%.
The mark [11] stands for this setting: 1 μg/heart, read-out: Inhibitory rate of systole.
Setting [12] is: 1 μg/heart, read-out: Reducing rate of heart pulse.

Entries after “also recorded” stand apart in the source; their conditions may differ. Read-outs that look alike come from different tables or passages of the source.

One may read the LD50 as the dose expected to kill half of the subjects tested. The low end stands for a more toxic substance, the high end for a less toxic substance.

As for `COC(=O)C1=C(C)NC(C)=C(C(=O)OC)C1c1ccccc1[N+](=O)[O-]` [Compound A, dimethyl 1,4-dihydro-2,6-dimethyl-4-(2-nitophenyl)3,5-pyridinedicarboxylate, reference compound], in data set [1] (3 μg/heart), the “Coronary perfusion Duration” value was less than 10 min and the activation at 3 µg/heart was found to be 40%. For the same compound, the inhibition at 3 µg/heart in data set [1] (setting [8]) was 35%. Besides, the inhibition at 3 µg/heart in data set [1] (setting [9]) worked out at 10%. Moreover, in data set [2] (10 mg/kg oral), the Recovering time was determined as 4.0 h, the “Time for recovering 1/2 of max. hypotension” value (from here on “Time … of max. hypotension”) worked out at 1.5 h, the “Time until reaching to max. hypotension” value came to 15 min and the Maximum hypotension stood at 49 mmHg. In data set [3], the activation at 3 µg/heart was determined as 40%; the inhibition at 3 µg/heart, 3 µg/heart was determined as 35%; the inhibition at 3 µg/heart was determined as 10%. Also, the EC50 in data set [4] is 41 nM. For the same compound, in data set [5] (1 mg/kg oral), the Maximum hypotension worked out at 55 mmHg, the Recovering time is 3.0 to 4.0 h, the “Time … of max. hypotension” value amounted to 2.0 h and the “Time until reaching to max. hypotension” value was found to be 30 min.
`CCCCCCCCOC(=O)C1=C(C)NC(C)=C(C(=O)NC(C)C)C1c1ccccc1[N+](=O)[O-]` (centres unmarked) [Example 2, n-octyl 2,6-dimethyl-3-isopropylaminocarbonyl-4-(o-nitrophenyl)-1,4-dihydropyridine-5-carboxylate]: in data set [2] (3 mg/kg oral), the Recovering time was greater than 5.0 h, the “Time … of max. hypotension” value was 5.0 h, the “Time until reaching to max. hypotension” value was found to be 30 min and the Maximum hypotension worked out at 55 mmHg. Besides, the “hypotensive activity (in words)” value in data set [2] (Table 4, comparison with nifedipine and nicardipine hydrochloride where stated) is reported as “the same or more potent activity with longer duration; also recorded: potent hypotensive activity”. This compound came in with an LD50 at 168 h in data set [6] of 10 to 100 mg/kg. In addition, in data set [3], the activation at 3 µg/heart is 17%; the inhibition at 3 µg/heart, 3 µg/heart turned out to be 50%; the inhibition at 3 µg/heart was determined as 25%. In addition, the “inhibitions on the heart pulse and contactility (in words)” value in data set [3] (Table 6) was “moderate inhibitions on the heart pulse and contactility”. Further, in data set [4] (setting [10]), the EC50 was 300 nM. In addition, the “relaxing / vasodilating activity on isolated aorta (in words)” value (shortened to “relaxing / vasodilating activity”) in data set [4] is given as “somewhat weak vasodilating activity”.
In the case of `COC(=O)C1=C(C)NC(C)=C(C(=O)OCCN(C)Cc2ccccc2)C1c1cccc([N+](=O)[O-])c1.Cl` (centres unmarked) [Compound B, methyl, N-benzyl-N-methylaminoethyl 1,4-dihydro-2,6-dimethyl-4-(3-nitrophenyl)-3,5-pyridinedicarboxylate hydrochloride, reference compound], in data set [1] (3 μg/heart), the “Coronary perfusion Duration” value is less than 10 min and the activation at 3 µg/heart was 15%. In addition, in data set [1] (setting [8]), the inhibition at 3 µg/heart is 10%. Moreover, in data set [1] (setting [9]), the inhibition at 3 µg/heart came to 5%. For the same compound, in data set [2] (10 mg/kg oral), the Recovering time is greater than 5.0 h, the “Time … of max. hypotension” value is greater than 5.0 h, the “Time until reaching to max. hypotension” value was determined as 15 min and the Maximum hypotension is 57 mmHg. Moreover, in data set [3], the activation at 3 µg/heart was 15%; the inhibition at 3 µg/heart, 3 µg/heart stood at 10%; the inhibition at 3 µg/heart was 5%. The EC50 in data set [4] (setting [10]) is 19 nM. For the same compound, in data set [5] (3 mg/kg oral), the Maximum hypotension was found to be 27 mmHg, the Recovering time fell in the range of 3.0 to 4.0 h, the “Time … of max. hypotension” value amounted to 2.0 h and the “Time until reaching to max. hypotension” value came to 30 min.
On to `C#CCNC(=O)C1=C(C)NC(C)=C(C(=O)OCCCCCCCC)C1c1ccccc1[N+](=O)[O-]` (centres unmarked) [Example 78, n-octyl 2,6-dimethyl-3-propargylaminocarbonyl-4-(o-nitrophenyl)-1,4-dihydropyridine-5-carboxylate], for which, in data set [1] (1 μg/heart), the “Coronary perfusion Duration” value amounted to 60 min and the activation at 1 µg/heart is 55%. In addition, the inhibition at 1 µg/heart in data set [1] (setting [11]) came out at 35%. Further, the inhibition at 1 µg/heart in data set [1] (setting [12]) amounted to 10%. Also, in data set [5] (1 mg/kg oral), the Maximum hypotension is 33 mmHg, the Recovering time amounted to 5.0 h, the “Time … of max. hypotension” value was found to be 3.0 h and the “Time until reaching to max. hypotension” value was determined as 60 min. For the same compound, the “hypotensive activity (in words)” value in data set [5] is reported as “the same or more potent hypotensive activity with longer duration”.
For the compound `C#CCNC(=O)C1=C(C)NC(C)=C(C(=O)OCCCCCCCCC)C1c1ccccc1[N+](=O)[O-]` (centres unmarked) [Example 79, n-nonyl 2,6-dimethyl-3-propargylaminocarbonyl-4-(o-nitrophenyl)-1,4-dihydropyridine-5-carboxylate], in data set [1] (1 μg/heart), the “Coronary perfusion Duration” value was found to be 60 min and the activation at 1 µg/heart amounted to 50%. In data set [1] (setting [11]), the inhibition at 1 µg/heart was found to be 40%. Also, the inhibition at 1 µg/heart in data set [1] (setting [12]) was 30%. In data set [5] (1 mg/kg oral), the Maximum hypotension was 45 mmHg, the Recovering time turned out to be 5.0 h, the “Time … of max. hypotension” value was 3.0 h and the “Time until reaching to max. hypotension” value was 60 min. Further, in data set [5], the “hypotensive activity (in words)” value is recorded as “the same or more potent hypotensive activity with longer duration”.
In the case of `COC(=O)C1=C(C)NC(C)=C(C(N)=O)C1c1ccccc1[N+](=O)[O-]` (centres unmarked) [C, reference compound], in data set [2] (10 mg/kg oral), the Recovering time was found to be 2.0 h, the “Time … of max. hypotension” value worked out at 1.5 h, the “Time until reaching to max. hypotension” value is 15 min and the Maximum hypotension came out at 20 mmHg. In addition, in data set [3], the activation at 3 µg/heart is 16%; the inhibition at 3 µg/heart, 3 µg/heart was determined as 17%; the inhibition at 3 µg/heart was 7%. For the same compound, the EC50 in data set [4] (setting [10]) was greater than 1000 nM.
As for `CCCCCCCCCOC(=O)C1=C(C)NC(C)=C(C(=O)NC2CC2)C1c1ccccc1[N+](=O)[O-]` (centres unmarked) [Example 83, n-nonyl 2,6-dimethyl-3-cyclopropylaminocarbonyl-4-(o-nitrophenyl)-1,4-dihydropyridine-5-carboxylate], the “Coronary perfusion Duration” value in data set [1] (3 μg/heart) was greater than 120 min. Further, the activation at 3 µg/heart in data set [1] was 42%. Also, the inhibition at 3 µg/heart in data set [1] (read-out: Inhibitory rate of systole) was found to be 50%. Further, the inhibition at 3 µg/heart in data set [1] (read-out: Reducing rate of heart pulse) was found to be 20%. Further, in data set [4], the EC50 was found to be 290 nM and the “relaxing / vasodilating activity” value is given as “somewhat weak vasodilating activity”. The compound also showed an LD50 at 168 h in data set [7] (female rats) of no more than 10 mg/kg. For the same compound, the LD50 at 168 h in data set [7] (male rats) lay within 100 to 500 mg/kg. In data set [5] (1 mg/kg oral), the Maximum hypotension came to 61 mmHg, the Recovering time is greater than 8.0 h, the “Time … of max. hypotension” value is greater than 8.0 h and the “Time until reaching to max. hypotension” value was 180 min. Further, the “hypotensive activity (in words)” value in data set [5] was “the same or more potent hypotensive activity with longer duration; also recorded: potent hypotensive activity”.
`CC1=C(C(=O)NC(C)C)C(c2ccccc2[N+](=O)[O-])C(C(=O)OCCC(C)C)=C(C)N1` (centres unmarked) [Example 47]: in data set [2] (10 mg/kg oral), the Recovering time worked out at 3.0 h, the “Time … of max. hypotension” value was 2.0 h, the “Time until reaching to max. hypotension” value was 30 min and the Maximum hypotension came to 32 mmHg. Moreover, in data set [3], the activation at 3 µg/heart turned out to be 35%; the inhibition at 3 µg/heart, 3 µg/heart was determined as 5%; the inhibition at 3 µg/heart turned out to be 11%. In addition, the EC50 in data set [4] (setting [10]) is 20 nM. In data set [4], the “relaxing / vasodilating activity” value is reported as “the same or more potent activity”.

The record behind these values is patent US4874773A, “3-Aminocarbonyl-1,4-dihydropyridine-5-carboxylic acid compounds, and pharmaceutical composition containing the same” (priority 1985, dated 1989).
